# Literature values as cited in patent publication US20170246163A1, “METHODS OF IMPROVING BALANCE, GAIT OR BOTH IN PATIENTS WITH NEUROLOGICAL DISEASE” (priority 2016, published 2017).
# Like-named read-outs stand apart in the source and are kept apart here.
# Tests used:
# [1] = test system: subjects with mild-to-moderate Alzheimer's disease; conditions: 48 weeks
# [2] = test system: PD patients experiencing frequent falls; conditions: crossover versus placebo, p<0.05
# [3] = test system: subjects with moderate Alzheimer's disease; conditions: Phase 2
# [4] = test system: patients with either PD, PD-MCI, or PDD; conditions: 176 patients with PD, 12 months, p<0.01
compound,measurement,setting,value
COc1cc2c(cc1OC)C(=O)C(CC1CCN(Cc3ccccc3)CC1)C2 (stereo not drawn) [donepezil],subjects who experienced falls,[1]; donepezil alone,6%
same,falls reported while on treatment,[2],0.13 falls/day
same,subjects who experienced falls,[3]; donepezil alone,6%
Fc1ccc2c(CCNCc3cccc(OCC(F)(F)C(F)F)c3)c[nH]c2c1 [idalopirdine],subjects who experienced falls,[3]; on top of donepezil,2%
"O=S(=O)(c1ccccc1)c1cnc2c(N3CCNCC3)cccc2c1 [intepirdine, 3-phenylsulfonyl-8-piperazinyl-1yl-quinoline]",subjects who experienced falls,[1]; on top of donepezil,2%
CCN(C)C(=O)Oc1cccc([C@H](C)N(C)C)c1 [rivastigmine],lowering of the incidence of falls relative to baseline,[4],50%
